Experiments:
[1] = target: T1, norepinephrine transporter (NET) (Rattus norvegicus, UniProt Q63380); assay: In vitro assay for NET inhibition (radioligand binding, rat brain cortex); conditions: rat brain cortex membranes, [3H]Nixosetine radioligand; for IC50: read-out: NET-inhibition (pIC50) (converted)
T1 construct: Cortex from rat brain was collected and homogenised; from tissue; host or cells: rat brain cortex membranes
Description: Cortex from rat brain was collected and homogenised using an Ultra-Turrax T25 and a Dual homogeniser in ice-cold homogenising buffer containing Tris, NaCl and KCl (50 mM, 120 mM and 5 mM, respectively, pH 7.4) prior to dilution to an appropriate protein concentration optimised for specific and non-specific binding. […] Membrane-bound activity was detected by filtration through a Packard Filtermate harvester onto GF/B Unifilterplates, washed with ice-cold Tris-HCl buffer, containing NaCl and KCl (50 mM, 120 mM and 4 mM; pH 7.4; 6×0.5 ml). Filters were allowed to dry for 24 h before adding scintillation fluid. Scintillation fluid was allowed to saturate filters for 24 h before counting in a Topcount scintillation counter. Percentage specific bound and competition binding curves were calculated using S-Plus software (Insightful).

[2] = target: T2, human dopamine D2L receptor (Homo sapiens, UniProt P14416); assay: In vitro assay for D2 receptor binding; conditions: for IC50 / D2 (pIC50): membranes of human D2L-transfected CHO cells, [3H]Spiperone radioligand; for IC50: read-out: D2 (pIC50) (converted); for D2/NET: ratio of D2 pIC50 to NET-inhibition pIC50
T2 construct: expressed in transfected cells; host or cells: CHO cells (frozen membranes)
T2 sequence (P14416 whole entry): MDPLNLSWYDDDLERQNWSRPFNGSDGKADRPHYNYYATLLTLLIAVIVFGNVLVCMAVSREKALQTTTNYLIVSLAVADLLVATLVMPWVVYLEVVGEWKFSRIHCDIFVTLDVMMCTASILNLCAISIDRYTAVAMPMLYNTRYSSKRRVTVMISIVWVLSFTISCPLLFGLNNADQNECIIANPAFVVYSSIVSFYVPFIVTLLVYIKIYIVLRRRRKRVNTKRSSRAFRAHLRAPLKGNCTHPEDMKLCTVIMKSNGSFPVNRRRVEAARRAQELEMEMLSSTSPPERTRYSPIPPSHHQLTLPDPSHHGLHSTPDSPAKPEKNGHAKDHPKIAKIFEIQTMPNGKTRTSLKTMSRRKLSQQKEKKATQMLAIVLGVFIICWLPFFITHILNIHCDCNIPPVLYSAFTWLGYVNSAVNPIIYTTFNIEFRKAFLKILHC
Description: Frozen membranes of human dopamine D2L receptor-transfected CHO cells were thawed, briefly homogenised using an Ultra-Turrax T25 homogeniser and diluted in Tris-HCl assay buffer containing NaCl, CaCl2, MgCl2, KCl (50, 120, 2, 1, and 5 mM respectively, adjusted to pH 7.7 with HCl) to an appropriate protein concentration optimised for specific and non-specific binding. Radioligand [^3H]Spiperone (NEN, specific activity ˜70 Ci/mmol) was diluted in assay buffer at a concentration of 2 nmol/L. Prepared radioligand (50 μl), along with 50 μl of either the 10% DMSO control, Butaclamol (10^−6 mol/l final concentration), or compound of interest, was then incubated (30 min, 37° C.) with 400 μl of the prepared membrane solution. Membrane-bound activity was filtered through a Packard Filtermate harvester onto GF/B Unifilterplates and washed with ice-cold Tris-HCl buffer (50 mM; pH 7.7; 6×0.5 ml). Filters were allowed to dry before adding scintillation fluid and counting in a Topcount scintillation counter. Percentage specific bound and competition binding curves were calculated using S-Plus software (Insightful).

[3] = target: T3, human cloned 5-HT2C receptor (Homo sapiens, UniProt P28335); assay: In vitro binding affinity for 5-HT2C receptor (radioligand binding); conditions: human cloned 5-HT2C receptor expressed in CHO cells, [3H]mesulergine radioligand; read-out: 5-HT2C (pIC50) (converted)
T3 construct: expressed in transfected cells; host or cells: CHO cells
T3 sequence (P28335 33-458): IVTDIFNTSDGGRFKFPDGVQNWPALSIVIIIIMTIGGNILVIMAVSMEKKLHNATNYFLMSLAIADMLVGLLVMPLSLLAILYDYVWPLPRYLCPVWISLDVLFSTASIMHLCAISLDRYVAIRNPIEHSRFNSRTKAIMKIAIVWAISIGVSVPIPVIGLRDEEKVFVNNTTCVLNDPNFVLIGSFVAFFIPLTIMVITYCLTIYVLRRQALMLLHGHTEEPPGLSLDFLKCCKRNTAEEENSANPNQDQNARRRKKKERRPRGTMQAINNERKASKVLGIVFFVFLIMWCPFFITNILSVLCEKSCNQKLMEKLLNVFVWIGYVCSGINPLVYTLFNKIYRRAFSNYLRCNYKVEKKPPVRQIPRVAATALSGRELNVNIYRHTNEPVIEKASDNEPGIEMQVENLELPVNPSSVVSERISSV
Description: The interaction of the compounds of Formula (I) with 5-HT2A and 5-HT2C receptors was assessed in in vitro radioligand binding experiments. In general, a low concentration of a radioligand with a high binding affinity for the receptor is incubated with a sample of a tissue preparation enriched in a particular receptor (1 to 5 mg tissue) in a buffered medium (0.2 to 5 ml). During the incubation, the radioligands bind to the receptor. When equilibrium of binding is reached, the receptor bound radioactivity is separated from the non-bound radioactivity, and the receptor bound activity is counted. The interaction of the test compounds with the receptors is assessed in competition binding experiments. Various concentrations of the test compound are added to the incubation mixture containing the tissue preparation and the radioligand. Binding of the radioligand will be inhibited by the test compound in proportion to its binding affinity and its concentration. The affinities of the compounds for the 5-HT2 receptors were measured by means of radioligand binding studies conducted with: (a) human cloned 5-HT2A receptor, expressed in L929 cells using [^125I]R91150 as radioligand and (b) human cloned 5-HT2C receptor, expressed in CHO cells using [^3H]mesulergine as radioligand.

T1 sequence (Q63380 1-617): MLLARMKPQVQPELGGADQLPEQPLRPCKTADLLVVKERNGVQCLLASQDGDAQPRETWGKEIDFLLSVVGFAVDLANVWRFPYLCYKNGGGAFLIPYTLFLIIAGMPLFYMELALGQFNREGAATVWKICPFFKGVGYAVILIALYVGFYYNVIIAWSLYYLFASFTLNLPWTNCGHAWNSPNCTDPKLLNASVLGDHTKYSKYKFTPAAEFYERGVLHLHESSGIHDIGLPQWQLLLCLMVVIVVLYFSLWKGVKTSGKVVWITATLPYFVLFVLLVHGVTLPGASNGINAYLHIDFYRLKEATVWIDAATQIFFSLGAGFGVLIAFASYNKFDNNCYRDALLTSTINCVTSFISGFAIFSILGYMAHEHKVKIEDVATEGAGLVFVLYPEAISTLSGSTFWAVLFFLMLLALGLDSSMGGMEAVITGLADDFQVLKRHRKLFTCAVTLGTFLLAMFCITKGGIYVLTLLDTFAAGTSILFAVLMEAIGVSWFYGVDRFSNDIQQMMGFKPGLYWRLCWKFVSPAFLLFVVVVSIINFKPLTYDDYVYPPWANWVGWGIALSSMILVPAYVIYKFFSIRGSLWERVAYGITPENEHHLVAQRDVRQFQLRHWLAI

IC50 [1] [nM] | IC50 [2] [nM] | D2/NET [2] | IC50 [3] [nM] | NET-inhibition (pIC50) [1] | D2 (pIC50) [2] | Structure (SMILES)
63.1 | > 10000 | <0.69 | 200 |  |  | CNC[C@@H]1C[C@H]2c3ccccc3C(C)c3ccc(F)cc3[C@@H]2O1 (mixture of isomers) [Compound 99]
31.6 | 7940 | 0.68 | 50.1 |  |  | CNC[C@H]1C[C@H]2c3cc(F)ccc3C(C)c3ccccc3[C@@H]2O1 (mixture of isomers) [Compound 102]
6.31 |  | 0.73 | 3.98 |  |  | C=C1c2ccc(F)cc2C2CC(CNC)OC2c2ccccc21 (single isomer, unassigned) [Compound 93]
 | 5010 | 0.65 | 20 | 8.2 |  | C=C1c2ccc(F)cc2C2CC(CNC)OC2c2ccccc21 (single isomer, unassigned) [Compound 94]
7.94 | > 10000 | <0.62 | 158 |  |  | CNCC1CC2c3ccccc3C(C)c3ccc(F)cc3C2O1 (single isomer, unassigned) [Compound 100]
631 |  | <0.83 | 1000 |  | <5 | CNCC1CC2c3cc(F)ccc3C(C)(O)c3ccccc3C2O1 (single isomer, unassigned) [Compound 114]
1260 | > 10000 | <0.85 | 1580 |  |  | CNCC1CC2c3cc(F)ccc3C(C)(O)c3ccccc3C2O1 (single isomer, unassigned) [Compound 115]
631 | 2000 | 0.91 | 100 |  |  | CCNCC1CC2c3ccccc3C(C)(O)c3ccc(F)cc3C2O1 (single isomer, unassigned) [Compound 118]
31.6 |  | 0.67 | 20 |  |  | CCNCC1CC2c3ccccc3C(C)(O)c3ccc(F)cc3C2O1 (single isomer, unassigned) [Compound 119]
316 |  | <0.77 | 6310 |  | <5 | CNCC1CC2c3ccccc3C(C)(O)c3ccc(F)cc3C2O1 (single isomer, unassigned) [Compound 124]
2000 | > 10000 | <0.88 | 6310 |  |  | CNCC1CC2c3ccccc3C(C)(O)c3ccc(F)cc3C2O1 (single isomer, unassigned) [Compound 125]
63.1 |  | <0.69 | 501 |  | <5 | CNCC1CC2c3ccccc3C(C)(O)c3ccc(F)cc3C2O1 (single isomer, unassigned) [Compound 126]
501 |  | 0.95 | 50.1 |  |  | COc1ccc2c(c1)[C@H]1O[C@@H](CN(C)C)C[C@@H]1c1ccccc1C2=O [Compound 16]
5.01 | > 1000 | <0.72 | 12.6 |  |  | C=C1c2ccc(F)cc2C2CC(CN(C)C)OC2c2cc(F)ccc21 (stereo not shown) [Compound 29]
126 | 3980 | 0.79 | 39.8 |  |  | COC1c2ccccc2[C@H]2C[C@H](CN(C)C)O[C@@H]2c2cc(F)ccc21 (stereo partly shown) [Compound 60]
31.6 | > 1000 | <0.80 | 50.1 |  |  | CC1c2ccc(F)cc2C2CC(CN(C)C)OC2c2cc(F)ccc21 (stereo not shown) [Compound 77]
398 | 2000 | 0.88 | 100 |  |  | C[C@@H]1c2ccccc2[C@H]2C[C@H](CN(C)C)O[C@@H]2c2cc(N(C)C)ccc21 [Compound 78]
15.8 | 6310 | 0.67 | 50.1 |  |  | C=C1c2ccccc2[C@@H]2C[C@@H](CNC)O[C@H]2c2cc(F)ccc21 [Compound 95]
15.8 | 3980 | 0.69 | 20 |  |  | CNC[C@H]1C[C@@H]2c3cc(F)ccc3[C@@H](C)c3ccccc3[C@H]2O1 [Compound 101]
